Source: US11278525B1, “Further molecules, compositions and methods for modulation of SIRT6” (SirTLab Corporation, priority 2017, dated 2022)

What was measured:
SIRT6 [1] = target: T1, SIRT6 (Homo sapiens, UniProt Q8N6T7); assay: Secondary validation assays: HPLC deacylation, fluorometric deacetylation, in vitro histone deacetylation; assay type: biochemical; details: values only in FIGS. 1-3
Procedure: The activating effect of three compounds (ChemDiv ID E677-1326, E677-0945 and D715-0284) for SIRT6 was validated by conducting the following secondary assays. As previously described, D715-0284 is a stereoisomer of molecule 768382-41-8.
1. HPLC deacylation assay. SIRT6 was incubated with compounds and myristoyl-lysine peptide (corresponding to TNF-alpha sequence) at 37° C. The deacylation reactions were analyzed by reversed phase high-performance liquid chromatography on Kinetex C18 column by monitoring the formation of the deacylated product at 214 nm. […] Equally diluted DMSO served as control.
2. Fluorometric deacetylation assay. SIRT6 was incubated with compounds and fluorophore-labelled acetyl-lysine peptide (corresponding to histone H3 sequence) at 37° C. […] Results are expressed as a percentage of DMSO—treated control.
3. In vitro histone deacetylation assay. Chromatin was purified from HEK293T cells by two steps of lysis (with Nonidet P-40 lysis buffer). SIRT6 was incubated with chromatin proteins and the reaction mixture is then used for Western blot analysis. […] SIRT6 (0.5 μM) was incubated with chromatin fractions isolated from HEK293T cells in the presence of 10 micromolar NAD+ and compound D715-0284 or DMSO (control) at 37° C.

SIRT6 [2] = target: T1, SIRT6; assay: SIRT6 enzymatic activity assay with fluorophore (AMC)-labeled Lysin-myristoylated histone H3 peptide (de-myristoylation, trypsin release); assay type: biochemical; design: six-histidine tag; made in house; host or cells: Escherichia coli BL21; details: for % activity 20 uM: compound 20 uM; for % activity 20 uM / % activity Max. conc. 100 uM: percentage of signal increase relative to control wells, Tables 1-2; for % activity Max. conc. 100 uM: compound 100 uM; for % Activity: amount tested 20 uM, Example 5, Table 9
Procedure: Human recombinant SIRT6 (sequence identifier: CAG33481.1; GI:4814651) was expressed in large scale in Escherichia coli strain BL21 as a six-histidine-tagged protein, after transformation of the expression plasmid pET28-SIRT6. The SIRT6 enzyme was purified from the bacteria culture broth in a two-step strategy. The first purification step was carried out by cation exchange chromatography on a HiTrap CM-Sepharose column (GE Healthcare) using an FPLC system. The second purification step was performed by immobilized metal ion affinity chromatography (IMAC) using a cobalt affinity column (Clontech).
The enzymatic activity assay is carried out in 96 or 384-well microplates using the purified recombinant SIRT6 and a fluorophore-labeled peptide substrate: 7-amino-4-methylcoumarin (AMC) that is quenched through conjugation to the C-terminal end of a Lysin-myristoylated histone H3 peptide. The activity assay procedure requires two steps, both performed in the same microplate. In the first step, the substrate is incubated with the purified SIRT6 protein along with the co-substrate nicotinamide adenine dinucleotide (NAD+). Upon de-myristoylation, the liberated ε-amino group of the lysine becomes a trypsin substrate. Treatment with trypsin in the second step releases the fluorophore resulting in an increase in fluorescence. Fluorescence intensity is measured using a fluorescent plate reader (excitation and emission at 370 nm and 450 nm, respectively). The fluorescence signal is directly proportional to SIRT6 enzymatic activity.
In the primary screening, compounds from a library (ChemDiv Inc.) were tested at a single concentration of 20 micromolar for their potential to modulate SIRT6 enzymatic activity. The assay was carried out in 384-well black well plates and all liquid handling was done using a robotic liquid handler. Purified recombinant SIRT6 (1 micromolar) was pre-incubated with each compound (or DMSO in control wells) for 15 minutes at room temperature. The first stage of the assay was initiated by adding a ‘substrate solution’ containing the myristoylated histone H3 peptide and NAD+(for final concentrations of 25 micromolar and 20 micromolar, respectively). After one hour incubation at 37° C., a Trypsin solution (6 mg/mL) was added for 30 minutes at room temperature. Fluorescence intensity was measured using a fluorescent plate reader (Tecan) with excitation at 370 nm and emission at 450 nm. The effect of each tested compound was evaluated by the change in the fluorescence intensity compared to control wells. […] To validate the primary screening results, each of the primary “hits” was re-tested, first at concentration of 20 micromolar in duplicates and later at a serial dilution ranging from 100 to 0.2 micromolar in triplicates.
Results of Assay—The results of the assay are given below in Tables 1-3.
Additional molecules were tested according to the methods and materials of Example 1. The amount tested was 20 uM for each molecule.

T1 sequence (Q8N6T7 whole entry): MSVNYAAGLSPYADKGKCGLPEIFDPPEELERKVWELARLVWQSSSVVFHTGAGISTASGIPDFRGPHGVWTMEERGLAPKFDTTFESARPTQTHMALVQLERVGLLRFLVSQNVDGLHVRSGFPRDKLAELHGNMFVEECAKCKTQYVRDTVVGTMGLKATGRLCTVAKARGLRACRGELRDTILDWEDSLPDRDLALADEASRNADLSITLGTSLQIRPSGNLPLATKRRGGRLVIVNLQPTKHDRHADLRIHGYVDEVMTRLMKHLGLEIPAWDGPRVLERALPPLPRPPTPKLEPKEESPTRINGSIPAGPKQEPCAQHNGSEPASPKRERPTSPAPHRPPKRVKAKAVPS

| Structure (SMILES) | activating effect for SIRT6 in secondary assays (in words) (SIRT6 [1]) | % activity 20 uM (SIRT6 [2]) | % activity Max. conc. 100 uM (SIRT6 [2]) | % Activity (SIRT6 [2]) |
| --- | --- | --- | --- | --- |
| Cc1cccc2sc(N(CCCN(C)C)C(=O)CCOc3ccccc3)nc12 [E677-0945] | validated | 263% | 255% |  |
| CN(C)CCCN(C(=O)CCOc1ccccc1)c1nc2c(F)cccc2s1 [E677-1326] | validated | 287% | 252% |  |
| CCOC(=O)CCc1c(C)c2ccc(OC(=O)c3cccc(OC)c3)c(C)c2oc1=O [Y041-1765] |  |  |  | 80% |
| CCCCCCc1c(C)c2cc3c(-c4ccc(F)cc4)coc3c(C)c2oc1=O [Y041-6500] |  |  |  | 21% |
